From publication PMC12441774, “Proteolytic stabilization of a spider venom peptide results in an orally active bioinsecticide” (Pest Management Science, 2025)
Bridges are numbered along the chain shown (N, C = ends). Where no end group is shown, it is not given here.

Columns and labels:
Musca domestica = experiment: Insecticidal activity by injection into adult house flies; format: in vivo
Experimental: Adult house flies (Musca domestica L.) were immobilized with CO2 gas and those with an average weight of 12–18 mg were selected for injection. Purified solutions of Ta1b and variants were diluted in water and injected into the dorsal thorax with a 1‐cc syringe and 30‐gauge needle using a hand microapplicator (Burkard, Rickmansworth, England). Each adult was injected with 0.5 μL of solution with 10 flies per treatment in at least triplicate. Water was used as a negative control. Flies were placed into a container with moist filter paper and scored for mortality 24 h post‐injection. Ten non‐injected flies were placed in a container to assess CO2 mortality. Response curves were fitted with a four‐parameter sigmoidal function (GraphPad Prism, Boston, MA) to determine LD50 values.
(§1) To compare the potency of Ta1b, we also injected the following active ingredients into M. domestica and H. zea: GS‐ω/κ (Spear, Vestaron), spinosad (Monterey Garden Insect Spray, Monterey), thiamethoxam (Optigard® Flex, Syngenta), and chlorantraniliprole (ALTACOR®, FMC).

Helicoverpa zea = experiment: Insecticidal activity by injection into fourth instar larvae; format: in vivo
Experimental: Helicoverpa zea (Boddie, 1850) larvae were reared from eggs (Benzon, Carlisle, PA) to fourth instar on general purpose lepidopteran diet (F9772, Frontier Agricultural Sciences, Newark, DE). Pre‐weighed larvae immobilized on ice were injected into their penultimate proleg as described for M. domestica with 1 μL solution and eight larvae per treatment in at least triplicate. After injection, larvae were placed in a well of a 32‐well tray filled with 5 mL lepidopteran diet. The trays were then placed in an incubator at 28° C with 16:8 h light: dark cycle and evaluated 24 h after injection for mortality.
as §1

H. zea neonates = experiment: Insecticidal activity by foliar spray (lettuce leaf disk feeding); format: in vivo, Helicoverpa zea
Experimental: Organic romaine lettuce was cut into 30‐mm diameter disks and sterilized with a 140‐ppm bleach solution followed by a triple rinse in water. The lettuce disks were then sprayed on either side using a Potter Tower Sprayer (Burkard, Rickmansworth, England) with insecticidal solutions, allowing them to dry between sprays. Once fully sprayed and dried, disks were placed into an arena, which was a 32‐well rearing tray containing 5 mL of 1% w/v agar. One leaf disk was placed in each well and a single neonate H. zea was applied to each of the 12 leaf discs per treatment with four experimental replicates per treatment. The trays were then placed in a 28° C incubator with a 16:8 h light: dark cycle. Mortality was evaluated 4 days after application.

[1] = Protease stability, commercial trypsin digestion; format: in vitro ADME, bovine; conditions: bovine trypsin 1 mg mL^−1 in 50 mM Tris–HCl pH 8.8, 100 mM NaCl; 5 μL added to 200 μL of 10.7 mg mL^−1 peptide; room temperature; HPLC; read-out: Degradation half life, Trypsin
Experimental: (§2) For commercial enzyme digestion studies, bovine trypsin (Sigma‐Aldrich, St. Louis, MO) was prepared at a concentration of 1 mg mL^−1 in 50 mM Tris–HCl pH 8.8, 100 mM NaCl. Bovine chymotrypsin (Sigma‐Aldrich) was prepared at a concentration of 1 mg ml^−1 in 50 mM MES pH 6.0, 100 mM NaCl. For each digestion condition, 5 μL of trypsin or chymotrypsin solution were added to 200 μL of 10.7 mg mL^−1 peptide and incubated at room temperature. Samples were taken at defined timepoints, sterile filtered, and analyzed immediately by HPLC.

bovine trypsin = target: T1, bovine trypsin (Bos taurus, UniProt P00760); experiment: Protease stability, commercial trypsin digestion; format: in vitro ADME; conditions: pH 8.8, room temperature, HPLC chromatogram
T1 construct: purchased Sigma-Aldrich
T1 sequence (P00760 24-246): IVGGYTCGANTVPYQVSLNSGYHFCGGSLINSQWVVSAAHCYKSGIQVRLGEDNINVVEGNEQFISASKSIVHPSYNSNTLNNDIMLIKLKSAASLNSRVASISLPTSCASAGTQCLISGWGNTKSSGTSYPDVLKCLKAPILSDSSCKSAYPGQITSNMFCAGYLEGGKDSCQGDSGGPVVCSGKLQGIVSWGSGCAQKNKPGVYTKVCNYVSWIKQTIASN
Experimental: as §2

[2] = Gut enzyme digestion, M. sexta gut extract; format: in vitro ADME, Manduca sexta; conditions: M. sexta fifth instar gut extract diluted 10× in 30 mM Tris–HCl pH 8.8, 0.5–1 mg mL^−1 peptide, HPLC, single exponential decay fit
Experimental: (§3) Larvae of H. zea, Spodoptera frugiperda Smith and Abbot, 1797, and Trichoplusia ni Hubner, 1802 were purchased from Benzon Research and reared to fifth instar on general purpose lepidopteran diet. Manduca sexta L. were purchased from Carolina Biological Supply (Burlington, NC) and reared to fifth instar on the supplied diet. Larvae were anesthetized on ice for 30 min, pinned on a dissection plate, and opened laterally with microdissection scissors. The foregut, midgut and hindgut were excised and washed using sterile water to remove any excess hemolymph and then transferred into a chilled 2‐mL microcentrifuge tube. The extracts were spun in a microcentrifuge at 10000 g to pellet the solids. The liquid fractions were carefully removed, sterile filtered, and stored at −80°C for future use.
(§4) For gut enzyme digestion studies, gut extract was diluted 10× with the dilution buffer (30 mM Tris–HCl, pH 8.8) and 0.5–1 mg mL^−1 of Ta1b. Samples were taken from the digestion mixture at defined timepoints and mixed with a 1:6 ratio of stop buffer (Tris–HCl pH 1–2) to halt further digest of the peptide. Samples were sterile filtered and analyzed by HPLC to determine peptide integrity and concentration.

[3] = Gut enzyme digestion, H. zea gut extract; format: in vitro ADME, Helicoverpa zea; conditions: pH 8.8; extract diluted ten-fold, single exponential decay fit, HPLC; read-out: Degradation half-life in H. zea gut extract
Experimental: as §3, §4

[4] = Gut enzyme digestion, S. frugiperda gut extract; format: in vitro ADME, Spodoptera frugiperda; conditions: pH 8.8; extract diluted ten-fold, single exponential decay fit, HPLC; read-out: Degradation half-life in S. frugiperda gut extract
Experimental: as §3, §4

[5] = Gut enzyme digestion, T. ni gut extract; format: in vitro ADME, Trichoplusia ni; conditions: pH 8.8; extract diluted ten-fold, single exponential decay fit, HPLC; read-out: Degradation half-life in T. ni gut extract
Experimental: as §3, §4

[6] = Gut enzyme digestion, stated jointly for three lepidopteran gut extracts; format: in vitro ADME, H. zea, S. frugiperda, T. ni; conditions: 10‐fold diluted gut extract, single exponential decay, followed up to 21 h
Experimental: as §3, §4

[7] = Circular dichroism thermal denaturation; format: physicochemical; conditions: CD ellipticity at 220 nm, 0.4–0.6 mg mL^−1 peptide in 10 mM sodium phosphate pH 7.0, 2°C min^−1 up to 95°C, Boltzmann sigmoidal fit, 3–4 replicates
Experimental: Thermal denaturation profiles were collected on a Jasco‐J1500 CD spectrophotometer in a 0.2‐cm cuvette at a peptide concentration of 0.4–0.6 mg mL^−1 in 10 mM sodium phosphate, pH 7.0. Ellipticity was monitored at 220 nm every 1°C up to 95°C at a rate of 2°C min^−1. Denaturation curves were fitted with a Boltzmann sigmoidal function (GraphPad Prism) to determine the melting point (T m) for a single replicate. 3–4 replicates were run and the calculated T m values of each variant peptide was tested for a statistically significant difference relative to the rTa1b peptide or Ta1b‐QA commercial peptide, as appropriate, using an unpaired, two‐tailed, heteroscedastic student t's test (Microsoft Excel, Redmond, WA).

[8] = injection, Supplementary Figure 4
[9] = injection, Supplementary Table 1

Sequence: EPDEICRARMTNKEFTYKSNVCNNCGDQVAACEAECFRNDVYTACHEAQKG (disulfide 6-36, 22-32, 25-45) [Ta1b]
- Insecticidal LD50, injection, M. domestica (95% CI) (Musca domestica; adult house flies 12–18 mg, 0.5 μL into dorsal thorax, mortality 24 h post‐injection, 10 flies per treatment, at least triplicate, four‐parameter sigmoidal fit): 0.27 (0.23–0.32) nmol g^−1
- LD50 against house flies (Musca domestica; [8]): 310 pmol/g
- Housefly LD50 (95%CI) (Musca domestica; [9]): 0.27 (0.23-0.32) pmol/g
- Insecticidal LD50, injection, H. zea (95% CI) (Helicoverpa zea; fourth instar larvae, 1 μL into penultimate proleg, mortality 24 h after injection, eight larvae per treatment, at least triplicate): 2.4 (1.7–3.4) nmol g^−1
- LD50 against H. zea (Helicoverpa zea; [8]): 2560 pmol/g
- H. zea LD50 (95%CI) (Helicoverpa zea; [9]): 2.4 (1.7-3.4) pmol/g
- Day 4 mortality of H. zea on treated lettuce leaves, peptide alone (H. zea neonates; 100 μg cm^−2, neonates, compared to untreated): no activity
- Day 4 mortality of H. zea on treated lettuce leaves, peptide in combination with Btk (H. zea neonates; 100 μg cm^−2 peptide with sublethal Btk 0.17 μg cm^−2, neonates): no activity
- half-life at 10.4 mg mL^-1 [1]: 288 min
- Digestion by bovine trypsin (HPLC) (bovine trypsin): resulted in digestion of the peptide
- Degradation half life, Gut extract [2]: under 2 min
- half-life ([2]; read-out: Degradation half life, Gut extract): 1.4 min
- half-life [3]: 118 min
- half-life [4]: 26.4 min
- half-life [5]: 38.1 min
- Degradation half‐lives in gut extracts from H. zea, S. frugiperda, and T. ni [6]: 0.5 to 2 h
- Melting temperature Tm (± SEM) [7]: 73.7 ± 0.4 °C
